# Experimental data reported in article PMC2869451 (Journal of medicinal chemistry, 2009).
# Target: S-adenosylmethionine synthetase (MAT, cMAT) (Escherichia coli, UniProt P0A817)
# Assay: […]-methionine incorporation into AdoMet with purified enzyme
# Type: biochemical
# Chain of S-adenosylmethionine synthetase (MAT, cMAT) (P0A817 2-384): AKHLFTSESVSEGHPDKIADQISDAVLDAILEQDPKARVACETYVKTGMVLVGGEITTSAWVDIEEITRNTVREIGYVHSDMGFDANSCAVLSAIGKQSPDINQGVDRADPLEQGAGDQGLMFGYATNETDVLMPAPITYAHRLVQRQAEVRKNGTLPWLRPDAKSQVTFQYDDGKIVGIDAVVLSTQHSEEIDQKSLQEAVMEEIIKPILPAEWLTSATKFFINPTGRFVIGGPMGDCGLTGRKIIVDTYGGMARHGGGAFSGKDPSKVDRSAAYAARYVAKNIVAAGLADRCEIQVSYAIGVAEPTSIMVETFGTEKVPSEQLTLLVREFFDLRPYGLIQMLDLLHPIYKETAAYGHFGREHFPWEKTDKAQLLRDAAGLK
smiles,measurement,value
"CCOc1ccccc1NC(=O)NCC(=O)NNC(=O)Nc1cc([N+](=O)[O-])ccc1C [compound 1, 1-(3-(2-ethoxyphenyl)ureidoacetyl)-4-(2-methyl-5-nitrophenyl)semicarbazide]",Ki,1.9 ± 0.8 nM
